Assay results as given in patent US11931328B2, “Stabilized formulations of 4-amino-3-substituted butanoic acid derivatives” (AMNEAL PHARMACEUTICALS LLC, priority 2019, dated 2024).
Entries after “also recorded” stand apart in the source; their conditions may differ. Where two headings read alike, the source gives them in different places.

Assay: Accelerated stability studies of API/stabilizer preparations (lactam impurity A by HPLC)
Assay type: physicochemical

| SMILES | effect of EUDRAGIT E on formation of lactam impurity A (with EUDRAGIT E PO 1, 5, 10% (m/m), stored at 60° C. in closed glass vials, HPLC) | effect of EUDRAGIT E on formation of lactam impurity A |
| --- | --- | --- |
| NCC(CC(=O)O)c1ccc(Cl)cc1 (stereo not drawn) [baclofen, 4-amino-3-(4-chlorophenyl)butanoic acid] | stabilized; also recorded: stabilization effect | – |
| NCC1(CC(=O)O)CCCCC1 [gabapentin] | – | destabilization effect |
| CC(C)C[C@H](CN)CC(=O)O [pregabalin] | – | destabilization effect |
